Experimental data published in US20250179013A1, “INHIBITORS OF RNA HELICASE DHX9 AND USES THEREOF” (ACCENT THERAPEUTICS, INC., priority 2022, published 2025).
Read-outs that look alike come from different tables or passages of the source.

Tests used:
[1] = system: DHX9 (circBRIP1 mRNA in HCT116 cells); assay: DHX9 circBRIP1 Cellular Target Engagement SYBR Green Assay; assay type: cell-based; conditions: 72 hours
[2] = biological target: T1, Human recombinant DHX9 protein (Homo sapiens, UniProt Q08211); assay: DHX9 ATPase assay (ADP-Glo biochemical assay); conditions: for DHX9 Biochemical Max Inhibition: maximum inhibition in ATPase assay, 10 μM Aurintricarboxylic acid = 100%
T1 construct: purchased Viva
T1 sequence (Q08211 whole entry): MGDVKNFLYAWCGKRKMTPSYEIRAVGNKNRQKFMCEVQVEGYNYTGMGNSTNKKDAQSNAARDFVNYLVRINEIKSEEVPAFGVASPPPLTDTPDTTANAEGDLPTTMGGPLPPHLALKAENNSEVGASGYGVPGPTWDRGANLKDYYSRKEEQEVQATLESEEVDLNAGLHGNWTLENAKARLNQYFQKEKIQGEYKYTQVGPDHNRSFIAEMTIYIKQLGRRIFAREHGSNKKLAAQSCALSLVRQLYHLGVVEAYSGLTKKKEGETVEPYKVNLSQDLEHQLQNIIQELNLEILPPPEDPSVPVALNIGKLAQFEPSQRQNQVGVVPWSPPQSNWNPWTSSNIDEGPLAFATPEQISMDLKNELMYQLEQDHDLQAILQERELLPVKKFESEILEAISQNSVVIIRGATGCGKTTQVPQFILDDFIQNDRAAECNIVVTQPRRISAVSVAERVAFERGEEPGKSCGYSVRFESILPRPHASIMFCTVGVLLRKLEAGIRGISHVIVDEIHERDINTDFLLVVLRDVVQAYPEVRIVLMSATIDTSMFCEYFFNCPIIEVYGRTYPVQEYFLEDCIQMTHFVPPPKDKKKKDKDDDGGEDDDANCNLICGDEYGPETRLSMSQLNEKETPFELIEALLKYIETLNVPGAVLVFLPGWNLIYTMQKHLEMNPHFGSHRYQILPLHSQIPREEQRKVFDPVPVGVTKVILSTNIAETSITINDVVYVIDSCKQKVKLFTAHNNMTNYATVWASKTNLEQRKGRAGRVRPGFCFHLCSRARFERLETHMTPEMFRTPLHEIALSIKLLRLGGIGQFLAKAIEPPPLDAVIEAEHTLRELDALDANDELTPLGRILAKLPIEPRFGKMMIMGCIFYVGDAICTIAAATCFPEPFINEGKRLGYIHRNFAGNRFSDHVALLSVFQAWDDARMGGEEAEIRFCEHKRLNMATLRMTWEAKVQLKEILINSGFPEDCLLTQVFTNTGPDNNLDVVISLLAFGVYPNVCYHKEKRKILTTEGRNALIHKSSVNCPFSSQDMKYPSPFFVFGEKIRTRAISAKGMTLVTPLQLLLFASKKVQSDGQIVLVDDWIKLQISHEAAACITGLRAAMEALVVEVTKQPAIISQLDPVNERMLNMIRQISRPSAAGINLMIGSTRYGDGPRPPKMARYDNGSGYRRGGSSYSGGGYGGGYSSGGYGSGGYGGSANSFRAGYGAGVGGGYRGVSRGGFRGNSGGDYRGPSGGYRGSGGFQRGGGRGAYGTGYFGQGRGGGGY

[3] = Homo sapiens, HCT-116, circBRIP1 qPCR
[4] = read-out: DHX9 Biochemical Inflection Point

Row | SMILES | EC50 [1, 3] | DHX9 Biochemical Max Inhibition [2] | IC50 [2, 4] | EC50 ([1]; circBRIP1 qPCR) | IC50 ([2]; inflection point (IP) of four-parameter fit, reported instead of IC50, ATPase, dsRNA substrate, 1 h room temperature, read-out: DHX9 Biochemical Inflection Point) | IC50 [2]
1 | CS(=O)(=O)Nc1cccc(NC(=O)c2cc(-c3c(O)cccc3F)cs2)c1 [Example 70] | 4.37 µM | 71.2% | 32.2 nM | – | – | –
2 | CS(=O)(=O)Nc1cccc(NC(=O)c2cc(-c3cc(C(N)=O)ccn3)cs2)c1 [Example 92] | > 30 µM | 75.5% | 55.4 nM | – | – | –
3 | Cc1cccnc1-c1csc(C(=O)Nc2cccc(NS(C)(=O)=O)c2)c1 [Example 83] | 0.917 µM | 73.1% | 17.3 nM | – | – | –
4 | CS(=O)(=O)Nc1cccc(NC(=O)c2cc(-c3ccccc3)c(C(F)(F)F)s2)c1 [Example 99, N-(3-(methylsulfonamido)phenyl)-4-phenyl-5-(trifluoromethyl)thiophene-2-carboxamide] | > 30 µM | 35.8% | 716 nM | – | – | –
5 | CS(=O)(=O)Nc1cccc(NC(=O)c2cc(-c3ccccn3)n[nH]2)c1 [Example 81] | > 30 µM | 68.3% | 1070 nM | – | – | –
6 | CS(=O)(=O)Nc1cccc(NC(=O)c2cc(-c3ccc(N4CCNCC4)cn3)cs2)c1 [Example 91, N-(3-(methylsulfonamido)phenyl)-4-(5-(piperazin-1-yl)pyridin-2-yl)thiophene-2-carboxamide] | 7.63 µM | 74.6% | 7.2 nM | – | – | –
7 | CS(=O)(=O)Nc1cccc(NC(=O)c2cc(-c3cccnn3)cs2)c1 [Example 66] | > 30 µM | 71.3% | 87.5 nM | – | – | –
8 | COc1cccc(-c2csc(C(=O)Nc3cccc(NS(C)(=O)=O)c3)c2)c1 [Example 56] | 21.4 µM | 68.2% | 148 nM | – | – | –
9 | CS(=O)(=O)Nc1cccc(NC(=O)c2cc(-c3ncccn3)cs2)c1 [Example 84] | 4.84 µM | 71.4% | 12.5 nM | – | – | –
10 | Cc1cc(C)nc(-n2nc(C(=O)Nc3cccc(NS(C)(=O)=O)c3)cc2C)n1 [Example 15] | > 30 µM | 70.4% | 579 nM | – | – | –
11 | CS(=O)(=O)Nc1cccc(NC(=O)c2cnn(-c3ccccc3)c2)c1 [Example 1] | > 30 µM | 71.6% | 339 nM | – | – | –
12 | CS(=N)(=O)Nc1cccc(NC(=O)c2cc(-c3ccccc3)cs2)c1 (stereo not shown) [Example 157, N-(3-(methylsulfonoamidimidamido)phenyl)-4-phenylthiophene-2-carboxamide] | – | 68.6% | – | > 30 µM | 205 nM | –
13 | CS(=O)(=O)Nc1cccc(NC(=O)c2cc(-c3ccccc3O)cs2)c1 [Example 57] | 25.3 µM | 70.7% | 41.9 nM | – | – | –
14 | CCS(=O)(=O)Nc1cccc(NC(=O)c2cc(-c3ccccn3)cs2)c1 [Example 97] | 4.32 µM | 70% | 24.7 nM | – | – | –
15 | CS(=O)(=O)Nc1cccc(NC(=O)c2cc(-c3cccc(C(N)=O)c3)cs2)c1 [Example 50] | > 30 µM | 66.5% | 45.8 nM | – | – | –
16 | Cc1c(O)cccc1-c1csc(C(=O)Nc2cccc(NS(C)(=O)=O)c2)c1 [Example 74, 4-(3-hydroxy-2-methylphenyl)-N-(3-(methylsulfonamido)phenyl)thiophene-2-carboxamide] | ≥ 30 µM | 71.4% | 80.6 nM | – | – | –
17 | CS(=O)(=O)Nc1cccc(NC(=O)c2cc(-c3cncnc3)cs2)c1 [Example 62] | > 30 µM | 60.8% | 271 nM | – | – | –
18 | CS(=O)(=O)Nc1cccc(NC(=O)c2cc(C(=O)Nc3ccccc3)cs2)c1 [Example 102, N2-(3-(methylsulfonamido)phenyl)-N4-phenylthiophene-2,4-dicarboxamide] | 18.9 µM | 72.5% | – | – | – | 159 nM
19 | CC(=O)N1CCN(c2ccc(-c3csc(C(=O)Nc4cccc(NS(C)(=O)=O)c4)c3)nc2)CC1 [Example 95] | > 30 µM | 73.1% | 7.6 nM | – | – | –
20 | CS(=O)(=O)Nc1cccc(NC(=O)c2cc(-c3cc(N)ccn3)cs2)c1 [Example 86] | 19.5 µM | 71.1% | 45.3 nM | – | – | –
21 | CS(=O)(=O)Nc1cccc(NC(=O)c2cc(-c3ncccc3N)cs2)c1 [Example 89] | 1.03 µM | 76.4% | 9.7 nM | – | – | –

Row | SMILES | EC50 [1, 3] | DHX9 Biochemical Max Inhibition [2] | IC50 [2, 4] | EC50 ([1]; circBRIP1 qPCR) | IC50 ([2]; inflection point (IP) of four-parameter fit, reported instead of IC50, ATPase, dsRNA substrate, 1 h room temperature, read-out: DHX9 Biochemical Inflection Point) | IC50 [2]
22 | CS(=O)(=O)Nc1cccc(NC(=O)c2nc(-c3ccccn3)c[nH]2)c1 [Example 90] | > 30 µM | 61.2% | 19000 nM | – | – | –
23 | CS(=O)(=O)Nc1cccc(NC(=O)c2ccn(-c3c(F)cccc3F)n2)c1 [Example 12] | > 30 µM | 83.3% | 355 nM | – | – | –
24 | CC(=O)Nc1ccccc1-c1csc(C(=O)Nc2cccc(NS(C)(=O)=O)c2)c1 [Example 93, 4-(2-acetamidophenyl)-N-(3-(methylsulfonamido)phenyl)thiophene-2-carboxamide] | 11.5 µM | 74% | 39.9 nM | – | – | –
25 | CS(=O)(=O)Nc1cccc(NC(=O)c2cccc(-n3cccn3)c2)c1 [Example 40] | > 30 µM | 72.8% | 371 nM | – | – | –
26 | CS(=O)(=O)Nc1cccc(NC(=O)c2cc(C(=O)NCc3ccc4[nH]ccc4c3)cs2)c1 [Example 145] | – | 67.7% | 105 nM | – | – | –
27 | Cc1cc(C(=O)Nc2cccc(NS(C)(=O)=O)c2)nn1Cc1ccccc1 [Example 154, 1-benzyl-N-(3-methanesulfonamidophenyl)-5-methyl-1H-pyrazole-3-carboxamide] | – | 68.4% | 3890 nM | – | – | –
28 | CS(=O)(=O)Nc1cccc(NC(=O)c2cc(C(=O)NCCc3c[nH]c4ccccc34)cs2)c1 [Example 140] | – | 70.1% | 189 nM | – | – | –
29 | CS(=O)(=O)Nc1cccc(NC(=O)c2cc(C(=O)NCCC3CC3)cs2)c1 [Example 162] | – | 68.5% | 81.1 nM | – | – | –
30 | CS(=O)(=O)Nc1cccc(NC(=O)c2ccc(-c3ccccc3)s2)c1 [Example 5] | – | 37.7% | 2970 nM | – | – | –
31 | CS(=O)(=O)Nc1cccc(NC(=O)c2cc(C(=O)NCc3ccc(CN4CCOCC4)cc3)cs2)c1 [Example 124] | – | 66.5% | 182 nM | – | – | –
32 | CS(=O)(=O)Nc1cccc(NC(=O)c2cc(C(=O)NCCc3cccnc3)cs2)c1 [Example 103] | – | 71.7% | 126 nM | – | – | –
33 | CS(=O)(=O)Nc1cccc(NC(=O)c2cccc(OCc3cccs3)c2)c1 [Example 28] | – | 76.4% | 4080 nM | – | – | –
34 | CS(=O)(=O)Nc1cccc(NC(=O)c2cc(C(=O)NCc3nc4ccccc4[nH]3)cs2)c1 [Example 141] | – | 66.3% | 92.6 nM | – | – | –
35 | CS(=O)(=O)Nc1cccc(NC(=O)c2ccc(C(=O)NC3CC3)cc2)c1 [Example 14] | – | 70.4% | 5090 nM | – | – | –
36 | CC(C)(C)NC(=O)c1ccc(NC(=O)c2csc(C(=O)Nc3cccc(NS(C)(=O)=O)c3)c2)cc1 [Example 127] | – | 68.3% | 115 nM | – | – | –
37 | CS(=O)(=O)Nc1cccc(NC(=O)c2cc(-c3ccccc3)cs2)n1 [Example 156, N-(6-methanesulfonamidopyridin-2-yl)-4-phenylthiophene-2-carboxamide] | – | 63.7% | – | – | – | 1920 nM
38 | Cc1ccc(C)n1-c1sccc1C(=O)Nc1cccc(NS(C)(=O)=O)c1 [Example 26] | – | 60.6% | 56900 nM | – | – | –
39 | CC(C)Oc1ccccc1NC(=O)c1csc(C(=O)Nc2cccc(NS(C)(=O)=O)c2)c1 [Example 135] | – | 65.6% | 211 nM | – | – | –
40 | CS(=O)(=O)Nc1cccc(NC(=O)c2cc(C(=O)NCc3ccc(N4CCOCC4)cc3)cs2)c1 [Example 116] | – | 74.5% | 70.8 nM | – | – | –
41 | COc1ccc(-c2cc(C(=O)Nc3cccc(NS(C)(=O)=O)c3)n[nH]2)cc1 [Example 78] | – | 61.5% | 698 nM | – | – | –
42 | CS(=O)(=O)Nc1cccc(NC(=O)c2ccc(-n3cccn3)cc2)c1 [Example 39] | – | 55.3% | 994 nM | – | – | –
